From patent publication US20150272934A1, “USE OF CSE INHIBITORS FOR THE TREATMENT OF CUTANEOUS INJURIES OR CONDITIONS AND SLEEP-RELATED BREATHING DISORDERS” (SOVA PHARMACEUTICALS, INC., priority 2012, published 2015)
Structures can show the parent of a compound that is named as a salt. Where two headings read alike, the source gives them in different places.

Target: human, mouse or rat recombinant CSE (UniProt P32929)
Test: CSE In Vitro Assay
[1] = […], species of enzyme not given
[2] = recombinant CSE 20 ug/ml, 50 uM PLP, DL-homocysteine substrate, 3 hours 37° C., species of enzyme not given

Row | Structure (SMILES) | IC50 [2] | further results
1 | N#CCC(N)c1nnn[nH]1 (stereo not drawn) [Example 1-1, 3-amino-3-(1H-tetrazol-5-yl)propionitrile dihydrochloride] |  | IC50 [1]: > 100 µM
2 | C#CC[C@H](N)c1nnn[nH]1 [Example 1-2, (S)-1-(1H-tetrazol-5-yl)-but-3-ynylamine hydrochloride] | < 10 µM | 
3 | C#CC[C@H](N)c1noc(=O)[nH]1 [Example 1-3, (S)-3-(1-aminobut-3-ynyl)-1,2,4-oxadiazol-5(4H)-one hydrochloride] | < 10 µM | 
4 | C#CC[C@H](N)c1ncn[nH]1 [Example 1-4, (S)-1-(1H-1,2,4-triazol-5-yl)but-3-yn-1-amine hydrochloride] | < 10 µM | 
5 | C#CC[C@H](N)c1nc(C(F)(F)F)n[nH]1 [Example 1-5, (S)-1-(3-(trifluoromethyl)-1H-1,2,4-triazol-5-yl)but-3-yn-1-amine hydrochloride] | > 100 µM | 
6 | C#CC[C@H](N)c1nc(N)n[nH]1 [Example 1-6, (S)-5-(1-aminobut-3-ynyl)-1H-1,2,4-triazol-3-amine hydrochloride] | > 100 µM | 
7 | C#CC[C@H](N)C(=O)Nc1nn[nH]n1 [Example 1-7, (S)-2-amino-N-(2H-tetrazol-5-yl)pent-4-ynamide] | 10 to 100 µM | 
8 | C#CC[C@H](N)C(=O)NS(=O)(=O)c1ccccc1 [Example 1-8, (S)-2-amino-N-(phenylsulfonyl)pent-4-ynamide hydrochloride] | 10 to 100 µM | 
9 | C#CCN(N)c1nnn[nH]1 [Example 2-3, 5-(1-(prop-2-ynyl)hydrazinyl)-1H-tetrazole] | < 10 µM | 
10 | CCN(N)c1nnn[nH]1 [Example 2-4] |  | IC50: < 10 µM
11 | COCCN(N)c1nnn[nH]1 [Example 2-6] |  | IC50 [1]: 10 to 100 µM
12 | CCCN(N)c1nnn[nH]1 [Example 2-7] | 10 to 100 µM | 
13 | CC(C)N(N)c1nnn[nH]1 [Example 2-9] | > 100 µM | 
14 | CN(N)c1nnn[nH]1 [Example 2-11] | < 10 µM | 
15 | NCCCN(N)c1nnn[nH]1 [Example 2-12, 3-(1-(1H-tetrazol-5-yl)hydrazinyl)propan-1-amine dihydrochloride] |  | IC50 [1]: < 10 µM
16 | NCCN(N)c1nnn[nH]1 [Example 2-13] | < 10 µM | 
17 | CNCCN(N)c1nnn[nH]1 [Example 2-14] | 10 to 100 µM | 
18 | CC(C)=NNc1nnn[nH]1 [Example 2-21] | < 10 µM | 
19 | CN(N)c1nnn(C)n1 [Example 2-29, 2-methyl-5-(1-methylhydrazinyl)-2H-tetrazole] |  | IC50: > 100 µM

Second part, led by results:

Row | IC50 [2] | Structure (SMILES) | further results
20 | 10 to 100 µM | C#CC[C@H](N)C(=O)NS(C)(=O)=O [Example 1-9, (S)-2-amino-N-(methylsulfonyl)pent-4-ynamide hydrochloride] | 
21 | 10 to 100 µM | CN(C)CCCN(N)c1nnn[nH]1 [Example 2-1, 3-(1-(1H-tetrazol-5-yl)hydrazinyl)-N,N-dimethylpropan-1-amine] | 
22 | > 100 µM | CN(C)CCN(N)c1nnn[nH]1 [Example 2-2, 2-(1-(1H-tetrazol-5-yl)hydrazinyl)-N,N-dimethylethanamine] | 
23 | > 100 µM | COCCCN(N)c1nnn[nH]1 [Example 2-5] | 
24 | > 100 µM | NN(Cc1ccccc1)c1nnn[nH]1 [Example 2-8] | 
25 | > 100 µM | CC(C)CN(N)c1nnn[nH]1 [Example 2-10] | 
26 | < 10 µM | CNCCCN(N)c1nnn[nH]1 [Example 2-15] | 
27 | 10 to 100 µM | C(=N\Nc1nnn[nH]1)/c1ccccc1 [Example 2-17, (E)-5-(2-benzylidenehydrazinyl)-1H-tetrazole] | 
28 | 10 to 100 µM | CN(C)c1ccc(/C=N/Nc2nnn[nH]2)cc1 [Example 2-18] | 
29 | > 100 µM | Clc1ccc(/C=N/Nc2nnn[nH]2)c(Cl)c1 [Example 2-19] | 
30 | < 10 µM | Clc1ccc(/C=N/Nc2nnn[nH]2)cc1 [Example 2-20] | 
31 | < 10 µM | C/C(=N\Nc1nnn[nH]1)c1ccc(N(C)C)cc1 [Example 2-22] | 
32 | < 10 µM | C1CCC(=NNc2nnn[nH]2)CC1 [Example 2-23] | 
33 | < 10 µM | C1CCC(=NNc2nnn[nH]2)C1 [Example 2-24] | 
34 | < 10 µM | CC/C(C)=N/Nc1nnn[nH]1 [Example 2-25] | 
35 | < 10 µM | CN(C)c1ccc(C(=O)C/C=N/Nc2nnn[nH]2)cc1 [Example 2-26, (E)-3-(2-(1H-tetrazol-5-yl)hydrazono)-1-(4-(dimethylamino)phenyl)propan-1-one] | 
36 | 10 to 100 µM | CN(C)c1ccc(/C=N/N(C)c2nnn[nH]2)cc1 [Example 2-27, (E)-N,N-dimethyl-4-((2-methyl-2-(1H-tetrazol-5-yl)hydrazono)methyl)aniline] | 
37 | < 10 µM | CC(C)=NN(C)c1nnn[nH]1 [Example 2-28, 5-(1-methyl-2-(propan-2-ylidene)hydrazinyl)-1H-tetrazole] | 
38 | > 100 µM | CCN(N)c1ncn[nH]1 [Example 2-31, 5-(1-ethylhydrazinyl)-1H-1,2,4-triazole] | 
39 | 10 to 100 µM | CN(N)c1noc(=O)[nH]1 [Example 2-32, 3-(1-methylhydrazinyl)-1,2,4-oxadiazol-5(4H)-one hydrochloride] | 
40 | > 100 µM | CCN(N)C(=O)c1nnn[nH]1 [Example 2-33, N-ethyl-1H-tetrazole-5-carbohydrazide] | 
41 | > 100 µM | CCN(N)C(=O)Nc1nnn[nH]1 [Example 2-34, 1-ethyl-N-(1H-tetrazol-5-yl)hydrazinecarboxamide] | 
42 | > 100 µM | CCN(N)C(=O)NS(=O)(=O)c1ccccc1 [Example 2-35, 1-ethyl-N-(phenylsulfonyl)hydrazinecarboxamide] | 
